# Data published in patent US20120214847A1, “2-[1-PHENYL-5-HYDROXY-4a-SUBSTITUTED-HEXAHYDROCYCLOPENTA[F]INDAZOL-5-YL]ETHYL PHENYL DERIVATIVES AS GLUCOCORTICOID RECEPTOR LIGANDS” (Merck Sharp & Dohme Corp., priority 2009, published 2012).
# Target: T1, human GR (Homo sapiens, UniProt P04150)
# T1 construct: naturally expresses the human GR; endogenous in cells
# T1 sequence (P04150 1-777): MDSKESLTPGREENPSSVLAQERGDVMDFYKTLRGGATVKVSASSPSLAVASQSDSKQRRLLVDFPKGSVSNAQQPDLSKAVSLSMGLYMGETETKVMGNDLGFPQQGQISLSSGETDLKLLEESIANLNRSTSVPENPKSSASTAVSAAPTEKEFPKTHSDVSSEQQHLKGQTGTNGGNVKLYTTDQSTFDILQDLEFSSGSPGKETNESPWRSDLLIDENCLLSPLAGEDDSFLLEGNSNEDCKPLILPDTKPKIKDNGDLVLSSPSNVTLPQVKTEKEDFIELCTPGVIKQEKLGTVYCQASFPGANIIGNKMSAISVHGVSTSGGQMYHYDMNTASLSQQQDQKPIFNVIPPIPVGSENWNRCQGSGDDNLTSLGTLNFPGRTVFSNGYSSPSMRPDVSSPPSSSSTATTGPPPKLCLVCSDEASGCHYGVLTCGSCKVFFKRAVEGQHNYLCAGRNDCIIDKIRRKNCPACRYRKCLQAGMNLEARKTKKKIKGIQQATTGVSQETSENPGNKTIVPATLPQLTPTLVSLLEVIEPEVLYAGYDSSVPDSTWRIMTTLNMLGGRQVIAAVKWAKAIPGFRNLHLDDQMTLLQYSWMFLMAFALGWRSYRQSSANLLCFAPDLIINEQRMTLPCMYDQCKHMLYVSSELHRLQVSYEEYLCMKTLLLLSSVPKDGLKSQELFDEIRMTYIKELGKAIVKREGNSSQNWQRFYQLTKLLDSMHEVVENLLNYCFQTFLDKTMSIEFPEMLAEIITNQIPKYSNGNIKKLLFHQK
# Assay: Trans-activation modulation of glucocorticoid receptor (GRAMMER), MMTV-LUC reporter in A549 cells
# Type: cell-based
# Settings: for Transactivation A549 Cells Grammer Emax (%) / Emax: Emax relative to the activity obtained with 300 nM dexamethasone; for Transactivation A549 Cells Grammer Emax (%) / EC50: A549 cells; for EC50: IP = inflection point, read-out: Transactivation A549 Cells Grammer IP; for Emax: A549, A549 cells, read-out: Transactivation A549 Cells Grammer Emax (%)
SMILES,Transactivation A549 Cells Grammer Emax (%),EC50,Emax
"CC[C@]12Cc3cnn(-c4ccccc4)c3C=C1CC[C@@]2(O)CC(O)c1ccccn1 (single isomer, unassigned) [Example 82a]",20%,285 nM,
"OC(C[C@]1(O)CCC2=Cc3c(cnn3-c3ccc(F)cc3)C[C@@]21C1CC1)c1ccc(F)cn1 (single isomer, unassigned) [Example 79b]",8%,46 nM,
"OCc1ccccc1CC[C@]1(O)CCC2=Cc3c(cnn3-c3ccc(F)cc3)C[C@@]21C1CC1 [Example 2, (4aR,5R)-4a-Cyclopropyl-1-(4-fluorophenyl)-5-{2-[2-(hydroxymethyl)phenyl]ethyl}-1,4,4a,5,6,7-hexahydrocyclopenta[f]indazol-5-ol]",,22 nM,24%
"CC[C@]12Cc3cnn(-c4ccc(F)cc4)c3C=C1CC[C@@]2(O)CCc1ncccc1S(C)(=O)=O [Example 80, (4aS,5R)-4a-Ethyl-1-(4-fluorophenyl)-5-{2-[3-(methylsulfonyl)pyridin-2-yl]ethyl}-1,4,4a,5,6,7-hexahydrocyclopenta[f]indazol-5-ol]",,56 nM,38%
"CC[C@]12Cc3cnn(-c4ccccc4)c3C=C1CC[C@@]2(O)CC(O)c1ccccn1 (single isomer, unassigned) [Example 82b]",10%,174 nM,
"NC(=O)C(O)c1ccccc1CC[C@]1(O)CCC2=Cc3c(cnn3-c3ccc(F)cc3)C[C@@]21C1CC1 (single isomer, unassigned) [Example 3a]",7%,125 nM,
"CC[C@]12Cc3cnn(-c4ccccc4)c3C=C1CC[C@@]2(O)CCc1ncccc1S(=O)(=O)C(C)C [Example 81, (4aS,5R)-4a-Ethyl-5-{2-[3-(iso-propylsulfonyl)pyridin-2-yl]ethyl}-1-phenyl-1,4,4a,5,6,7-hexahydrocyclopenta[f]indazol-5-ol]",,96 nM,36%
